Measured values as given in patent publication US20260184663A1, “INDENE COMPOUNDS, PHARMACEUTICAL COMPOSITIONS THEREOF, AND THEIR THERAPEUTIC APPLICATIONS” (NucMito Pharmaceuticals co. Ltd., priority 2022, published 2026).

Experiments:
Format in all cases: cell-based
[1] = tested on: A549 (lung adenocarcinoma); experiment: Antiproliferative activity (CCK-8 cell viability), A549; conditions: Homo sapiens, 72 h, read-out: Antiproliferative activity in cancerous cells, A549 (inhibition of cell growth); for inhibition at 3.3 µM: Compound concentration: 3.3 μM; for inhibition at 10 µM: Compound concentration: 10 μM; for inhibition at 30 µM: Compound concentration: 30 μM
In short: (§1)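 Cells were seeded at 2,000-5,000/well (HeLa in MEM, HepG2 and SW480 in DMEM, A549 in F-12K, all with 10% FBS) and treated with compound at 3.3, 10 or 30 μM for 72 h at 37° C. CCK-8 was added for 4 h, absorbance was read at 450 nm, and viability was expressed relative to DMSO-treated wells.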

[2] = tested on: B16F10 (malignant melanoma); experiment: Antiproliferative activity (CCK-8 cell viability), B16F10; conditions: Mus musculus, 72 h, read-out: Antiproliferative activity in cancerous cells, B16F10 (inhibition of cell growth); for inhibition at 3.3 µM: B16-F10, Compound concentration: 3.3 μM; for inhibition at 10 µM: B16-F10, Compound concentration: 10 μM; for inhibition at 30 µM: B16-F10, Compound concentration: 30 μM
In short: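 Attached B16F10 cells in 96-well plates were incubated with compound at 37° C for 72 h, followed by 10 μL CCK-8 reagent per well and a further 4 h incubation. A multi-well plate reader measured absorbance at 450 nm. Percent viability across replicates was calculated against DMSO vehicle-treated cells.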

SW480 (colon cancer) = experiment: Antiproliferative activity (CCK-8 cell viability), SW480; conditions: Homo sapiens, 72 h, read-out: Antiproliferative activity in cancerous cells, SW480 (inhibition of cell growth); for inhibition at 3.3 µM: Compound concentration: 3.3 μM; for inhibition at 10 µM: Compound concentration: 10 μM; for inhibition at 30 µM: Compound concentration: 30 μM
In short: as §1

HeLa (cervical cancer) = experiment: Antiproliferative activity (CCK-8 cell viability), HeLa; conditions: Homo sapiens, 72 h, read-out: Antiproliferative activity in cancerous cells, HELA (inhibition of cell growth); for inhibition at 3.3 µM: Compound concentration: 3.3 μM; for inhibition at 10 µM: Compound concentration: 10 μM; for inhibition at 30 µM: Compound concentration: 30 μM
In short: as §1

[3] = tested on: MDA-MB-231 (breast cancer); experiment: Antiproliferative activity (CCK-8 cell viability), MDA-MB-231; conditions: Homo sapiens, 72 h, read-out: Antiproliferative activity in cancerous cells, MDA-MB-231 (inhibition of cell growth); for inhibition at 3.3 µM: Compound concentration: 3.3 μM; for inhibition at 10 µM: Compound concentration: 10 μM; for inhibition at 30 µM: Compound concentration: 30 μM
In short: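 In this CCK-8 viability assay, MDA-MB-231 cells maintained in Dulbecco's modified Eagle's medium containing 10% fetal bovine serum were placed in 96-well plates (2,000-5,000 cells/well) and treated with compound for 72 h at 37° C. A 4 h incubation with 10 μL CCK-8 followed, plates were read at 450 nm, and viability was expressed against DMSO vehicle wells across replicates.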

HepG2 (liver cancer) = experiment: Antiproliferative activity (CCK-8 cell viability), HepG2; conditions: Homo sapiens, 72 h, read-out: Antiproliferative activity in cancerous cells, HepG2 (inhibition of cell growth); for inhibition at 3.3 µM: Compound concentration: 3.3 μM; for inhibition at 10 µM: Compound concentration: 10 μM; for inhibition at 30 µM: Compound concentration: 30 μM
In short: as §1

[4] = tested on: A431 (epidermoid carcinoma); experiment: Antiproliferative activity (CCK-8 cell viability), A431; conditions: Homo sapiens, 72 h, read-out: Antiproliferative activity in cancerous cells, A431 (inhibition of cell growth); for inhibition at 3.3 µM: A-431, Compound concentration: 3.3 μM; for inhibition at 10 µM: A-431, Compound concentration: 10 μM; for inhibition at 30 µM: A-431, Compound concentration: 30 μM
In short: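 Cell viability of compound-treated A431 cells was measured with a Cell Counting Kit-8. Each well received 10 μL of CCK-8 after 72 h of compound exposure, followed by 4 h incubation at 37° C. and a 450 nm plate-reader measurement. Percent viability was calculated relative to DMSO controls across replicates.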

| Structure (SMILES) | inhibition at 3.3 µM [1] | inhibition at 10 µM [1] | inhibition at 30 µM [1] | inhibition at 3.3 µM [2] | inhibition at 10 µM [2] | inhibition at 30 µM [2] | inhibition at 3.3 µM (SW480 (colon cancer)) | inhibition at 10 µM (SW480 (colon cancer)) | inhibition at 30 µM (SW480 (colon cancer)) | inhibition at 3.3 µM (HeLa (cervical cancer)) | inhibition at 10 µM (HeLa (cervical cancer)) | inhibition at 30 µM (HeLa (cervical cancer)) | inhibition at 3.3 µM [3] | inhibition at 10 µM [3] | inhibition at 30 µM [3] | inhibition at 3.3 µM (HepG2 (liver cancer)) | inhibition at 10 µM (HepG2 (liver cancer)) | inhibition at 30 µM (HepG2 (liver cancer)) | inhibition at 3.3 µM [4] | inhibition at 10 µM [4] | other results |
| --- | --- | --- | --- | --- | --- | --- | --- | --- | --- | --- | --- | --- | --- | --- | --- | --- | --- | --- | --- | --- | --- |
| CC1=C(CC(=O)O)c2cc(F)ccc2/C1=C\c1ccc(OC2CCN(C(=O)OC(C)(C)C)CC2)cc1 [C201, (Z)-2-(1-(4-((1-(Tert-butoxycarbonyl)piperidin-4-yl)oxy)benzylidene)-5-fluoro-2-methyl-1H-inden-3-yl)acetic acid] | < 30% | ≥ 50% | ≥ 50% | < 30% | ≥ 50% | ≥ 50% | < 30% | ≥ 50% | ≥ 50% | < 30% | ≥ 50% | ≥ 50% | < 30% | ≥ 50% | ≥ 50% | < 30% | ≥ 50% | ≥ 50% | ≥ 50% | ≥ 50% | inhibition at 30 µM [4]: ≥ 50% |
| O=C(O)CC1=C(Cc2ccc(Oc3ccc(F)cc3)cc2)/C(=C/c2ccc(Oc3ccc(F)cc3)cc2)c2ccc(F)cc21 [A107, (Z)-2-(5-Fluoro-2-(4-(4-fluorophenoxy)benzyl)-1-(4-(4-fluorophenoxy)-benzylidene)-1H-inden-3-yl)acetic acid] | ≥ 50% | ≥ 50% | – | ≥ 50% | ≥ 50% | – | ≥ 50% | ≥ 50% | – | ≥ 50% | ≥ 50% | – | ≥ 50% | ≥ 50% | – | ≥ 50% | ≥ 50% | – | ≥ 50% | ≥ 50% | – |
| CC1=C(CC(=O)O)c2cc(Cl)ccc2/C1=C/c1ccc(Oc2ccc(F)c(F)c2)cc1 [E29, (E)-2-(5-Chloro-1-(4-(3,4-difluorophenoxy)benzylidene)-2-methyl-1H-inden-3-yl)acetic acid] | < 30% | ≥ 50% | ≥ 50% | ≥ 50% | ≥ 50% | ≥ 50% | < 30% | ≥ 50% | ≥ 50% | ≥ 50% | ≥ 50% | ≥ 50% | ≥ 50% | ≥ 50% | ≥ 50% | < 30% | ≥ 50% | ≥ 50% | < 30% | 30 to 50% | inhibition at 30 µM [4]: ≥ 50% |
| CC1=C(CC(=O)O)c2cc(F)ccc2/C1=C\c1cccc(C(=O)Nc2ccc(F)cc2)c1 [B69, (Z)-2-(5-Fluoro-1-(3-((4-fluorophenyl)carbamoyl)benzylidene)-2-methyl-1H-inden-3-yl)acetic acid] | < 30% | ≥ 50% | – | ≥ 50% | ≥ 50% | – | 30 to 50% | ≥ 50% | – | ≥ 50% | ≥ 50% | – | 30 to 50% | ≥ 50% | – | 30 to 50% | ≥ 50% | – | < 30% | ≥ 50% | – |
| CC1=C(CC(=O)O)c2cc(F)ccc2/C1=C\c1ccc(CCOc2ccc(F)cc2)cc1 [B33, (Z)-2-(5-Fluoro-1-(4-(2-(4-fluorophenoxy)ethyl)benzylidene)-2-methyl-1H-inden-3-yl)acetic acid] | < 30% | 30 to 50% | – | ≥ 50% | ≥ 50% | – | < 30% | 30 to 50% | – | < 30% | 30 to 50% | – | < 30% | 30 to 50% | – | < 30% | 30 to 50% | – | ≥ 50% | ≥ 50% | – |
| CC1=C(CC(=O)O)c2cc(F)ccc2/C1=C\c1cccc(C2(c3ccccc3)SCCS2)c1 [C352, (Z)-2-(5-Fluoro-2-methyl-1-(3-(2-phenyl-1,3-dithiolan-2-yl)benzylidene)-1H-inden-3-yl)acetic acid] | < 30% | ≥ 50% | ≥ 50% | < 30% | ≥ 50% | ≥ 50% | < 30% | ≥ 50% | ≥ 50% | < 30% | ≥ 50% | ≥ 50% | 30 to 50% | ≥ 50% | ≥ 50% | < 30% | ≥ 50% | ≥ 50% | < 30% | ≥ 50% | inhibition at 30 µM [4]: ≥ 50% |
| CC1=C(CC(=O)O)c2cc(Cl)ccc2/C1=C\c1ccc(Oc2ccc(C(C)C)cc2)cc1 [C84, (Z)-2-(5-Chloro-1-(4-(4-isopropylphenoxy)benzylidene)-2-methyl-1H-inden-3-yl)acetic acid] | ≥ 50% | ≥ 50% | – | ≥ 50% | ≥ 50% | – | ≥ 50% | ≥ 50% | – | ≥ 50% | ≥ 50% | – | ≥ 50% | ≥ 50% | – | ≥ 50% | ≥ 50% | – | ≥ 50% | ≥ 50% | – |
| CC1=C(CC(=O)O)c2cc(F)ccc2/C1=C/c1ccc(Oc2ccc(Cl)cc2)cc1 [E42, (E)-2-(1-(4-(4-Chlorophenoxy)benzylidene)-5-fluoro-2-methyl-1H-inden-3-yl)acetic acid] | < 30% | 30 to 50% | ≥ 50% | < 30% | 30 to 50% | ≥ 50% | 30 to 50% | ≥ 50% | ≥ 50% | 30 to 50% | ≥ 50% | ≥ 50% | < 30% | < 30% | ≥ 50% | < 30% | 30 to 50% | ≥ 50% | ≥ 50% | ≥ 50% | inhibition at 30 µM [4]: ≥ 50% |
